We go through 16 compounds from patent publication US9126984B2, “4-(indol-3-yl)-pyrazole derivatives, pharmaceutical compositions and methods for use” (ITEOS THERAPEUTICS, priority 2013, dated 2015).

The structures appear in SMILES notation.

For series [1], the target named is T1, human recombinant TDO2 enzyme (Homo sapiens, UniProt P48775).
T1 construct: made in house
In words: Assay for TDO2 enzymatic activity determination. It counts as biochemical. The following applies: human recombinant TDO2, L-Trp 1 mM, room temperature one hour, kynurenine absorbance at 480 nm. As for the experimental part: To measure the TDO2 activity, the reaction mixture contained (final concentrations) potassium phosphate buffer (50 mM, pH 7.5), ascorbic acid (0.25 M), methylene blue (0.125 μM), catalase (40 units/mL, from bovine liver, Sigma), and human recombinant TDO2 enzyme (prepared as described in Dolusic et al. J. Med. Chem.; 2011, 54, 5320-5334; 0.9 μg) without or with the compounds of the present invention embodiments at the indicated concentrations (total volume 112.5 μL). The reaction was initiated by the addition of 37.5 μL of L-Trp (final concentration 1 mM) at room temperature. The reaction was conducted at room temperature during one hour and stopped by the addition of 30 μL of 30% (w/v) trichloroacetic acid.
To convert N-formylkynurenine into kynurenine, the reaction mixture was incubated at 65° C. for 30 min. Then 150 μL of the reaction mixture was mixed with 120 μL, of 2.5% (w/v) 4-(dimethylamino)-benzaldehyde in acetic acid and incubated for 5 min at room temperature. Kynurenine concentrations were determined by measuring the absorbance at 480 nm. A standard curve was made with pure kynurenine. The TDO activity was measured as described above using ten serial concentrations of certain embodiments of the compounds of the present invention. Data were fitted using the Prism software (GraphPad Software, Inc.).

The target in series [2] is T2, murine mastocytoma P815 cells overexpressing hTDO2 (Homo sapiens, UniProt P48775).
T2 construct: expressed in transfected cells; host or cells: murine mastocytoma P815 cells
Briefly: Cellular assay for TDO2 activity determination. In kind it is cell-based. The note with it: P815 cells overexpressing hTDO2, overnight incubation at 37° C., kynurenine absorbance at 480 nm. As for the experimental part:
The assay was performed in 96-well flat bottom plates seeded with murine mastocytoma P815 cells overexpressing hTDO2 (prepared as described in Pilotte et al., PNAS, 2012, 109(7), 2497-2502), at a concentration of 5×10^4 cells/well in a final volume of 200 μL. To determine TDO or IDO activity, the cells were incubated overnight at 37° C. at 5% CO2 in IMDM (Invitrogen) supplemented with 2% FBS and 2% penicillin/streptomycin in the presence of the compounds of the present invention, at different concentrations.
The plates were then centrifuged 5 min at 1000 rpm, and 100 μL of the supernatant were collected in a conical plate, 30 uL of TCA 30% were added and a further centrifugated at 3000×g for 10 minutes. 100 μL of the supernatant were collected in a flat bottomed plate and 100 μL of 2% (w/v) 4-(dimethylamino)-benzaldehyde in acetic acid and incubated for 5 min at room temperature. Kynurenine concentrations were determined by measuring the absorbance at 480 nm. A standard curve was made with pure kynurenine. The TDO activity was measured as described above using ten serial concentrations of the compounds of the present invention. Data were fitted using the Prism software (GraphPad Software, Inc.).

T1 sequence (P48775 whole entry): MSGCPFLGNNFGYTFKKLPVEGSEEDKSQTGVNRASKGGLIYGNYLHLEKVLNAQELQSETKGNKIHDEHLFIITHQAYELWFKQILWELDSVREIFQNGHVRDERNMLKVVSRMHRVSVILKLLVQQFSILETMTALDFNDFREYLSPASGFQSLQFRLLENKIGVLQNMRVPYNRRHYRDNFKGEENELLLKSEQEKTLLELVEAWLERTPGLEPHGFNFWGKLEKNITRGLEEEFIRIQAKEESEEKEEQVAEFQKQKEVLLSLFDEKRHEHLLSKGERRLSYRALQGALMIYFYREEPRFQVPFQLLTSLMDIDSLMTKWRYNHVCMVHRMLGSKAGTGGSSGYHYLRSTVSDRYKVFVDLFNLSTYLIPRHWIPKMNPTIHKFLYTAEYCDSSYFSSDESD
T2 sequence (P48775 whole entry): as above

The compound `CNCCn1cc(-c2c[nH]c3cc(F)ccc23)cn1` [Example 24, 2-(4-(6-fluoro-1H-indol-3-yl)-1H-pyrazol-1-yl)-N-methylethanamine] displayed a melting point of 94.2 to 95.2 °C. For the same compound, the IC50 in series [1] is less than 1000 nM. Also, in series [2], the concentration for half-maximal inhibition (IC50) lay in the range of 1000 to 10000 nM.
The like results for `Fc1ccc2c(-c3cnn(C4CCNCC4)c3)c[nH]c2c1` [Example 78, 6-fluoro-3-(1-(piperidin-4-yl)-1H-pyrazol-4-yl)-1H-indole] were, in that order, 240.1 to 241.8 °C, 1000 to 10000 nM and less than 1000 nM.
Consider `O=S1(=O)CCC(Cn2cc(-c3c[nH]c4cc(F)ccc34)cn2)CC1` [Example 60, 4-((4-(6-fluoro-1H-indol-3-yl)-1H-pyrazol-1-yl)methyl)tetrahydro-2H-thiopyran 1,1-dioxide], for which the melting point is 193.1 to 194.1 °C. For the same compound, the IC50 in series [1] fell in the range of 1000 to 10000 nM. The IC50 in series [2] is 1000 to 10000 nM.
Compound `CC(=O)N1CCC(n2cc(-c3c[nH]c4cc(F)ccc34)cn2)CC1` [Example 89, 1-(4-(4-(6-fluoro-1H-indol-3-yl)-1H-pyrazol-1-yl)piperidin-1-yl)ethanone] yielded a melting point of 183.2 to 184.5 °C. Besides, the IC50 in series [1] was in the range of 1000 to 10000 nM. The compound also registered an IC50 in series [2] of less than 1000 nM.
For `O=C(CO)N1CCC(n2cc(-c3c[nH]c4cc(F)ccc34)cn2)CC1` [Example 84, 1-(4-(4-(6-fluoro-1H-indol-3-yl)-1H-pyrazol-1-yl)piperidin-1-yl)-2-hydroxyethanone], the melting point lay within 99.9 to 102.1 °C. Further, the half-inhibitory concentration (IC50) in series [1] is 1000 to 10000 nM.
Compound `NC(=O)CCn1cc(-c2c[nH]c3cc(F)ccc23)cn1` [Example 7, 3-(4-(6-fluoro-1H-indol-3-yl)-1H-pyrazol-1-yl)propanamide] returned a melting point of 173.3 to 175 °C. Besides, in series [1], the IC50 is less than 1000 nM. This compound also gave a half-maximal inhibitory concentration (IC50) in series [2] of less than 1000 nM.
As for `CC(C)(C)C(=O)N1CCC(n2cc(-c3c[nH]c4cc(F)ccc34)cn2)CC1` [Example 87, 1-(4-(4-(6-fluoro-1H-indol-3-yl)-1H-pyrazol-1-yl)piperidin-1-yl)-2,2-dimethylpropan-1-one], the melting point lay in the range of 231 to 232 °C. For the same compound, in series [1], the IC50 lay within 1000 to 10000 nM.
`Fc1cc2[nH]cc(-c3cnn(CC4CCNCC4)c3)c2cc1F` [Example 44, 5,6-difluoro-3-(1-(piperidin-4-ylmethyl)-1H-pyrazol-4-yl)-1H-indole]: the melting point lay within 167.1 to 168.9 °C. Also, the concentration for half-maximal inhibition (IC50) in series [1] lay in the range of 1000 to 10000 nM. Also, in series [2], the IC50 was less than 1000 nM.
The compound `CN1CCC(n2cc(-c3c[nH]c4cc(F)ccc34)cn2)CC1` [Example 91, 6-fluoro-3-(1-(1-methylpiperidin-4-yl)-1H-pyrazol-4-yl)-1H-indole] displayed a melting point of 222.8 to 223.7 °C. Also, in series [1], the half-inhibitory concentration (IC50) fell in the range of 1000 to 10000 nM. The same compound had an IC50 in series [2] of less than 1000 nM.
The like results for `CC(Cn1cc(-c2c[nH]c3cc(F)ccc23)cn1)C(N)=O` (single isomer, unassigned) [Example 35, 3-(4-(6-fluoro-1H-indol-3-yl)-1H-pyrazol-1-yl)-2-methylpropanamide] were, in that order, 184.5 to 185.5 °C, 1000 to 10000 nM and less than 1000 nM.
In the case of `O=C(C1CC1)N1CCC(n2cc(-c3c[nH]c4cc(F)ccc34)cn2)CC1` [Example 88, cyclopropyl(4-(4-(6-fluoro-1H-indol-3-yl)-1H-pyrazol-1-yl)piperidin-1-yl)methanone], the melting point lay within 190.7 to 191.4 °C. Also, in series [1], the half-inhibitory concentration (IC50) was in the range of 1000 to 10000 nM.
Turning to `CC(C)C(=O)N1CCC(n2cc(-c3c[nH]c4cc(F)ccc34)cn2)CC1` [Example 86, 1-(4-(4-(6-fluoro-1H-indol-3-yl)-1H-pyrazol-1-yl)piperidin-1-yl)-2-methylpropan-1-one], the melting point was in the range of 210.2 to 211 °C. The 50% inhibitory concentration (IC50) in series [1] lay within 1000 to 10000 nM.
On the same counts, the results for `CS(=O)(=O)CCn1cc(-c2c[nH]c3cc(F)c(F)cc23)cn1` [Example 32, 5,6-difluoro-3-(1-(2-(methylsulfonyl)ethyl)-1H-pyrazol-4-yl)-1H-indole] are 170.6 to 171.9 °C and 1000 to 10000 nM.
On the same counts, the results for `CN(C)CC(=O)N1CCC(n2cc(-c3c[nH]c4cc(F)ccc34)cn2)CC1` [Example 83, 2-(dimethylamino)-1-(4-(4-(6-fluoro-1H-indol-3-yl)-1H-pyrazol-1-yl)piperidin-1-yl)ethanone] are 193.7 to 196.1 °C and 1000 to 10000 nM.
On to `Fc1ccc2c(-c3cnn(CC4CCOCC4)c3)c[nH]c2c1` [Example 58, 6-fluoro-3-(1-((tetrahydro-2H-pyran-4-yl)methyl)-1H-pyrazol-4-yl)-1H-indole], for which the melting point was in the range of 138.9 to 139.6 °C. Besides, the IC50 in series [1] lay within 1000 to 10000 nM. The same compound showed a half-maximal inhibitory concentration (IC50) in series [2] of 1000 to 10000 nM.
With `CS(=O)(=O)CCn1cc(-c2c[nH]c3cc(F)ccc23)cn1` [Example 31, 6-fluoro-3-(1-(2-(methylsulfonyl)ethyl)-1H-pyrazol-4-yl)-1H-indole], the melting point fell in the range of 153.3 to 155.1 °C. Also, the IC50 in series [1] lay within 1000 to 10000 nM. In series [2], this compound displayed an IC50 of less than 1000 nM.
